The test system of this experiment is Endogenous Huntingtin Protein. Nature of the experiment: Endogenous Huntingtin Protein Assay (Meso Scale Discovery ELISA-based electrochemiluminescence). The experiment is classed as cell-based. As to conditions: MSD electrochemiluminescence, Table 1. How it is done: Compounds of Formula (I) were tested using the Meso Scale Discovery (MSD) Assay provided in International Application No. PCT/US2016/066042, filed on Dec. 11, 2016 and claiming priority to United States Provisional Application U.S. 62/265,652 filed on Dec. 10, 2015, the entire contents of which are incorporated herein by reference.
The Endogenous Huntingtin Protein assay used in Example 1 was developed using the ELISA-based MSD electrochemiluminescence assay platform.
Endogenous Huntingtin Protein Assay
Meso Scale Discovery (MSD) 96-well or 384-well plates were coated overnight at 4° C. with MW1 (expanded polyglutamine) or MAB2166 monoclonal antibody (for capture) at a concentration of 1 μg/mL in PBS (30 μL per well). Plates were then washed three times with 300 μL wash buffer (0.05% Tween-20 in PBS) and blocked (100 μL blocking buffer; 5% BSA in PBS) for 4-5 hours at room temperature with rotational shaking and then washed three times with wash buffer.
Samples (25 μL) were transferred to the antibody-coated MSD plate and incubated overnight at 4° C. After removal of the lysates, the plate was washed three times with wash buffer, and 25 μL of #5656S (Cell signaling; rabbit monoclonal) secondary antibody (diluted to 0.25 μg/mL in 0.05% Tween-20 in blocking buffer) was added to each well and incubated with shaking for 1 Hour at room temperature. Following incubation with the secondary antibody, the wells were rinsed with wash buffer after which 25 μL of goat anti-rabbit SULFO TAG secondary detection antibody (required aspect of the MSD system) (diluted to 0.25 μg/mL in 0.05% Tween-20 in blocking buffer) was added to each well and incubated with shaking for 1 hour at room temperature. After rinsing three times with wash buffer, 150 μL of read buffer T with surfactant (MSD) were added to each empty well, and the plate was imaged on a SI 6000 imager (MSD) according to manufacturers' instructions provided for 96- or 384-well plates.
A general note: An ELISA detects its analyte on a solid surface through an enzyme-linked reagent.
Regarding `Cc1cc(-c2cc3c(F)cc([C@@]4(O)CCNC[C@@H]4O)cc3nn2)cc2cn(C)nc12` [Compound 203, (3S,4S)-4-[3-(2,7-dimethyl-2H-indazol-5-yl)-5-fluorocinnolin-7-yl]piperidine-3,4-diol], the 50% inhibitory concentration (IC50) lay within 500 to 1000 nM. In turn, `CCN1CCC(c2cc3c(F)cc(-c4cc(C)c5nc(C)sc5n4)cc3nn2)CC1` [Compound 135, 7-(2,7-dimethyl[1,3]thiazolo[5,4-b]pyridin-5-yl)-3-(1-ethylpiperidin-4-yl)-5-fluorocinnoline] came in with an IC50 of at most 100 nM. The figure for `CCN1CCC(c2cc3c(F)cc(-c4cc(CO)c5nc(C)cn5n4)cc3nn2)CC1` [Compound 113, {6-[3-(1-ethylpiperidin-4-yl)-5-fluorocinnolin-7-yl]-2-methylimidazo[1,2-b]pyridazin-8-yl}methanol] is at most 100 nM; for `Cc1cn2cc(-c3ccc4nc(C5CCNCC5)ccc4c3)nc(C)c2n1` [Compound 18, 6-(2,8-dimethylimidazo[1,2-a]pyrazin-6-yl)-2-(piperidin-4-yl)quinoline] it is 100 to 500 nM; for `Cc1cn2nc(-c3cc(F)c4cc(C5CCNCC5)nnc4c3)cc(-n3ccnc3)c2n1` [Compound 194, 5-fluoro-7-[8-(1H-imidazol-1-yl)-2-methylimidazo[1,2-b]pyridazin-6-yl]-3-(piperidin-4-yl)cinnoline] it is 100 to 500 nM. For the compound `Cc1cc(-c2cc(F)c3nc(C4CCNCC4)ncc3c2)cc2cn(C)nc12` [Compound 34, 6-(2,7-dimethyl-2H-indazol-5-yl)-8-fluoro-2-(piperidin-4-yl)quinazoline], the half-maximal inhibitory concentration (IC50) was at most 100 nM.

Compound `CCN1CCC(c2cc3c(F)cc(-c4cc(C)c5nc(C)[nH]c5n4)cc3nn2)CC1` [Compound 132, 7-(2,7-dimethyl-3H-imidazo[4,5-b]pyridin-5-yl)-3-(1-ethylpiperidin-4-yl)-5-fluorocinnoline] returned an IC50 of at most 100 nM. On to `Cc1cn2nc(-c3cc(F)c4cc(C5C[C@@H](C)N(CCF)[C@@H](C)C5)nnc4c3)cc(C)c2n1` (stereo partly drawn) [Compound 170, 7-(2,8-dimethylimidazo[1,2-b]pyridazin-6-yl)-5-fluoro-3-[(2R,6S)-1-(2-fluoroethyl)-2,6-dimethylpiperidin-4-yl]cinnoline], for which the IC50 is 100 to 500 nM. Turning to `Cc1cn2nc(-c3cc(F)c4cc(C5CCNCC5)nnc4c3)cc(C(C)C)c2n1` [Compound 211, 5-fluoro-7-[2-methyl-8-(propan-2-yl)imidazo[1,2-b]pyridazin-6-yl]-3-(piperidin-4-yl)cinnoline], the half-inhibitory concentration (IC50) is at most 100 nM.

Compound `Cn1cc2cc(-c3ccc4cc(N5CCNCC5)ccc4n3)ccc2n1` [Compound 7, 2-(2-methyl-2H-indazol-5-yl)-6-(piperazin-1-yl)quinoline] gave a half-inhibitory concentration (IC50) of 1000 to 3000 nM. The compound `Cc1cn2nc(-c3cc(F)c4cc(C5CC6CC[C@@H](C5)N6)nnc4c3)cc(C)c2n1` (stereo partly drawn) [Compound 169, 3-[(1R,3r,5S)-8-azabicyclo[3.2.1]octan-3-yl]-7-(2,8-dimethylimidazo[1,2-b]pyridazin-6-yl)-5-fluorocinnoline] showed an IC50 of at most 100 nM. The figure for `CCN1CCC(c2ccc3cc(-c4cc(C)c5nc(C)cn5n4)cc(F)c3n2)CC1` [Compound 48, 6-(2,8-dimethylimidazo[1,2-b]pyridazin-6-yl)-2-(1-ethylpiperidin-4-yl)-8-fluoroquinoline] is at most 100 nM.

Regarding `Cc1nc2c(C)cc(-c3cc(F)c4cc(C5CCNCC5)nnc4c3)nc2s1` [Compound 133, 7-(2,7-dimethyl[1,3]thiazolo[5,4-b]pyridin-5-yl)-5-fluoro-3-(piperidin-4-yl)cinnoline], the IC50 is at most 100 nM. The compound `Cc1cn2nc(-c3cc(F)c4cc(C5C[C@@H](C)N(C)[C@@H](C)C5)nnc4c3)cc(C)c2n1` (stereo partly drawn) [Compound 161] had an IC50 of at most 100 nM.

Turning to `CCN1CCC(c2cc3c(F)cc(-c4cc(C(C)C)c5nc(C)cn5n4)cc3nn2)CC1` [Compound 222, 3-(1-ethylpiperidin-4-yl)-5-fluoro-7-[2-methyl-8-(propan-2-yl)imidazo[1,2-b]pyridazin-6-yl]cinnoline], the concentration for half-maximal inhibition (IC50) was in the range of 100 to 500 nM. The figure for `CCN1CCC(c2cc3c(F)cc(-c4cc(F)c5nc(C)cn5c4)cc3nn2)CC1` [Compound 102, 3-(1-ethylpiperidin-4-yl)-5-fluoro-7-(8-fluoro-2-methylimidazo[1,2-a]pyridin-6-yl)cinnoline] is at most 100 nM; for `Cc1cc(-c2cc3c(F)cc(C4=CCCNCC4)cc3nn2)cc2cn(C)nc12` [Compound 198, 3-(2,7-dimethyl-2H-indazol-5-yl)-5-fluoro-7-(2,3,6,7-tetrahydro-1H-azepin-4-yl)cinnoline] it is 100 to 500 nM. The figure for `Cn1cc2cc(-c3cc(F)c4cc(C5CCNCC5)nnc4c3)c(F)cc2n1` [Compound 97, 5-fluoro-7-(6-fluoro-2-methyl-2H-indazol-5-yl)-3-(piperidin-4-yl)cinnoline] is 500 to 1000 nM; for `Cc1cc(-c2nnc3cc(C4CCNCC4)ccc3n2)cc2cn(C)nc12` [Compound 17, 3-(2,7-dimethyl-2H-indazol-5-yl)-7-(piperidin-4-yl)-1,2,4-benzotriazine] it is at most 100 nM; for `Cc1cc(-c2cc3c(F)cc(C4=CCNCC4)cc3nn2)cc2cn(C)nc12` [Compound 157, 3-(2,7-dimethyl-2H-indazol-5-yl)-5-fluoro-7-(1,2,3,6-tetrahydropyridin-4-yl)cinnoline] it is at most 100 nM. As for `Cc1cn2cc(-c3cc(F)c4cc(C5CCNCC5)nnc4c3)cc2c(C)n1` [Compound 101, 7-(1,3-dimethylpyrrolo[1,2-a]pyrazin-7-yl)-5-fluoro-3-(piperidin-4-yl)cinnoline], the 50% inhibitory concentration (IC50) was at most 100 nM. The figure for `Cc1nc(-c2cc(F)c3nc(C4CCNCC4)nnc3c2)cc2cn(C)nc12` [Compound 67, 7-(2,7-dimethyl-2H-pyrazolo[3,4-c]pyridin-5-yl)-5-fluoro-3-(piperidin-4-yl)-1,2,4-benzotriazine] is 100 to 500 nM. The figure for `Cc1cn2nc(-c3cc(F)c4nc(C5CCNCC5)cnc4c3)cc(C)c2n1` [Compound 82, 6-(2,8-dimethylimidazo[1,2-b]pyridazin-6-yl)-8-fluoro-2-(piperidin-4-yl)quinoxaline] is at most 100 nM; for `Cn1cc2cc(-c3ncc4cc(C5=CCNCC5)cc(F)c4n3)cc(F)c2n1` [Compound 165, 8-fluoro-2-(7-fluoro-2-methyl-2H-indazol-5-yl)-6-(1,2,3,6-tetrahydropyridin-4-yl)quinazoline] it is at most 100 nM.

Compound `CCN1CCC(c2cc3c(F)cc(-c4cc(C)c5nc(C)oc5n4)cc3nn2)CC1` [Compound 152, 7-(2,7-dimethyl[1,3]oxazolo[5,4-b]pyridin-5-yl)-3-(1-ethylpiperidin-4-yl)-5-fluorocinnoline] came in with an IC50 of at most 100 nM. The figure for `Cc1cc(-c2cc(F)c3nc(C4CCNCC4)ccc3c2)cc2cn(C)nc12` [Compound 20, 6-(2,7-dimethyl-2H-indazol-5-yl)-8-fluoro-2-(piperidin-4-yl)quinoline] is at most 100 nM; for `CCN1CCC(c2cc3c(F)cc(-c4cc(C)c5nn(C)cc5n4)cc3nn2)CC1` [Compound 164, 7-(2,7-dimethyl-2H-pyrazolo[4,3-b]pyridin-5-yl)-3-(1-ethylpiperidin-4-yl)-5-fluorocinnoline] it is at most 100 nM. `CCc1cc(-c2cc(F)c3cc(C4CCN(CC)CC4)nnc3c2)nc2cn(C)nc12` [Compound 174, 7-(7-ethyl-2-methyl-2H-pyrazolo[4,3-b]pyridin-5-yl)-3-(1-ethylpiperidin-4-yl)-5-fluorocinnoline] yielded an IC50 of at most 100 nM. `Cc1cn2nc(-c3cc(F)c4cc(C5=CC(C)(C)NC(C)(C)C5)nnc4c3)cc(C)c2n1` [Compound 208, 7-(2,8-dimethylimidazo[1,2-b]pyridazin-6-yl)-5-fluoro-3-(2,2,6,6-tetramethyl-1,2,3,6-tetrahydropyridin-4-yl)cinnoline] returned an IC50 of 100 to 500 nM. `Cc1cn2nc(-c3cc(F)c4nc(C5CCNCC5)nnc4c3)cc(C)c2n1` [Compound 46, 7-(2,8-dimethylimidazo[1,2-b]pyridazin-6-yl)-5-fluoro-3-(piperidin-4-yl)-1,2,4-benzotriazine] had an IC50 of at most 100 nM. The figure for `Cc1cn2nc(-c3cc(F)c4cc(N5CCC(N(C)C)C5)nnc4c3)cc(C)c2n1` (stereo not drawn) [Compound 86, 1-[7-(2,8-dimethylimidazo[1,2-b]pyridazin-6-yl)-5-fluorocinnolin-3-yl]-N,N-dimethylpyrrolidin-3-amine] is at most 100 nM; for `CCN1CCC(c2cc(F)c3cc(-c4cc(F)c5nn(C)cc5c4)nnc3c2)CC1` [Compound 154, 7-(1-ethylpiperidin-4-yl)-5-fluoro-3-(7-fluoro-2-methyl-2H-indazol-5-yl)cinnoline] it is at most 100 nM. In turn, `Cc1cn2nc(-c3cc(F)c4cc(N5CCC6(CNC6)C5)nnc4c3)cc(C)c2n1` [Compound 220, 3-(2,6-diazaspiro[3.4]octan-6-yl)-7-(2,8-dimethylimidazo[1,2-b]pyridazin-6-yl)-5-fluorocinnoline] registered an IC50 of 100 to 500 nM.

For orientation: IC50 means the point on the concentration scale where inhibition reaches its midpoint.

For the origin of these results see patent US12384789B2, “Compounds for treating Huntington's disease” (PTC Therapeutics, Inc., priority 2017, dated 2025).
